Eight molecules from US20060287315A1, “Pyrazinedicarboxamides and their use” (Bayer HealthCare AG, priority 2004, published 2006) can be followed below.

Structures can show the parent of a compound that is named as a salt.

Chain of human factor Xa (FXa) (P00742 235-488 limits assumed): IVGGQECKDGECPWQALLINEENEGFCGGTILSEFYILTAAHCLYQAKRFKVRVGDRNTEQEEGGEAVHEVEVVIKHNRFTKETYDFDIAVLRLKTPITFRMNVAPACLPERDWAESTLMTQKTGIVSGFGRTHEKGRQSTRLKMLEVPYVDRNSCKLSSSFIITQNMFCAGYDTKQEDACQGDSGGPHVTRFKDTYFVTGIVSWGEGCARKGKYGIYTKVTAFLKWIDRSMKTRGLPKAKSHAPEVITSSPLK
Chain of human factor Xa (FXa) (P00742 41-179 partner limits assumed): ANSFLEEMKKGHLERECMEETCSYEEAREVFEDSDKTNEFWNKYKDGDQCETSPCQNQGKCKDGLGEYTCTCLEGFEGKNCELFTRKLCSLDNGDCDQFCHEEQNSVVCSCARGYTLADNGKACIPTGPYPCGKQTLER

The target in the experiment is human factor Xa (FXa) (Homo sapiens, UniProt P00742). Kind of experiment: Determination of the factor Xa inhibition (chromogenic substrate). In kind it is biochemical. To be noted: human FXa 0.5 nmol/l, Pefachrome FXa substrate, 25° C., pH 8.3, extinction at 405 nm. Here is the method: A.1) Determination of the Factor Xa Inhibition:
The enzymatic inhibition of human factor Xa (FXa) is measured using the conversion of a chromogenic substrate specific for FXa. Factor Xa cleaves p-nitroaniline from the chromogenic substrate. The determinations are carried out in microtitre plates as follows:
The test substances, in various concentrations, are dissolved in DMSO and incubated for 10 minutes at 25° C. with human FXa (0.5 nmol/l dissolved in 50 mmol/l of Tris buffer [C,C,C-tris(hydroxymethyl)aminomethane], 150 mmol/l of NaCl, 0.1% BSA [bovine serum albumin], pH=8.3). Pure DMSO is used as control. The chromogenic substrate ([…] Pefachrome® FXa from Pentapharm) is then added. After an incubation time of 20 minutes at 25° C., the extinction at 405 nm is determined.
`O=C(Nc1ccc(Cl)cn1)c1nccnc1C(=O)Nc1ccc(N2CCCC(O)C2=O)cc1F` (centres unmarked) [Example 9, N-(5-Chloropyridin-2-yl)-N′-[2-fluor-4-(3-hydroxy-2-oxopiperidin-1-yl)phenyl]pyrazine-2,3-di-carboxamide]: the half-inhibitory concentration (IC50) – broadly, the concentration that gives 50% inhibition – came out at 4.4 nM.
In turn, `O=C(Nc1ccc(Cl)cc1)c1nccnc1C(=O)Nc1ccc(N2CCOCC2=O)cc1` [Example 11, N-(4-Chlorophenyl)-N′-[4-(3-oxomorpholin-4-yl)phenyl]pyrazine-2,3-dicarboxamide] had an IC50 of 0.49 nM.
In turn, `O=C(Nc1ccc(N2CCOCC2=O)cc1)c1nccnc1C(=O)Nc1ccc(Cl)cn1` [Example 12, N-(5-Chloropyridin-2-yl)-N′[4-(3-oxomorpholin-4-yl)phenyl]pyrazine-2,3-dicarboxamide] yielded an IC50 of 0.16 nM.
On to `O=C(Nc1ccc(F)cc1)c1nccnc1C(=O)Nc1ccc(N2CCOCC2=O)cc1` [Example 17, N-(4-Fluorophenyl)-N′[4-(3-oxomorpholin-4-yl)phenyl]pyrazine-2,3-dicarboxamide], for which the concentration for half-maximal inhibition (IC50) came out at 16 nM.
On to `Cc1ccc(NC(=O)c2nccnc2C(=O)Nc2ccc(N3CCOCC3=O)cc2)cc1` [Example 18, N-(4-Methylphenyl)-N′-[4-(3-oxomorpholin-4-yl)phenyl]pyrazine-2,3-dicarboxamide], for which the midpoint of inhibition, the IC50, lay at 7.5 nM.
Consider `C#Cc1ccc(NC(=O)c2nccnc2C(=O)Nc2ccc(N3CCOCC3=O)cc2)cc1` [Example 20, N-(4-Ethynylphenyl)-N′-[4-(3-oxomorpholin-4-yl)phenyl]pyrazine-2,3-dicarboxamide], for which the half-inhibitory concentration (IC50) was 6.3 nM.
Under `O=C(Nc1ccc(Cl)cn1)c1nccnc1C(=O)Nc1ccc(-n2cccc(CNC3CC3)c2=O)cc1F` [Example 30, N-(5-Chloropyridin-2-yl)-N′-{4-[3-[(cyclopropylamino)methyl]-2-oxopyridin-1(2H)-yl]-2-fluorophenyl}pyrazine-2,3-dicarboxamide trifluoracetate, trifluoroacetate] stands 0.44 nM.
On to `NCCOc1cc(N2CCOCC2=O)ccc1NC(=O)c1nccnc1C(=O)Nc1ccc(Cl)cn1` [Example 32, N-[2-(2-Aminoethoxy)-4-(3-oxomorpholin-4-yl)phenyl]-N′-(5-chloropyridin-2-yl)pyrazine-2,3-dicarboxamide trifluoroacetate], for which half-maximal inhibition (IC50) was put at 0.3 nM.
